# Results from patent publication US10617680B2 (CELGENE QUANTICEL RESEARCH, INC., priority 2017, dated 2020).
# Biological target: CBP (Homo sapiens (Human), UniProt Q92793)
# Test: In vitro CBP inhibition (AlphaScreen, biotinylated H4-tetraacetyl peptide)
# Format: binding
# Conditions: AlphaScreen, Table 29; read-out: CBP IC50
# In short: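 His-tagged CBP expressed in E. coli (50 nM final) incubated with biotinylated H4K5/8/12/16(Ac) peptide (20 nM final) in 50 mM HEPES pH 7.3, 10 mM NaCl, 0.25 mM TCEP, 0.1% BSA, 0.005% Brij-35, 0.4% DMSO, 20 min at room temp.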
# Sequence of CBP (Q92793 1081-1197): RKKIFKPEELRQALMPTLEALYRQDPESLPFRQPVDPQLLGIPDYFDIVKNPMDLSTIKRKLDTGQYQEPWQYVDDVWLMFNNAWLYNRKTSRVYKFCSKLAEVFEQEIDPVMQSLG
row,Compound,IC50
1,"CC(c1ccccc1)n1cc(-c2cn(C)c(=O)cc2OCc2ccccc2)cn1 (stereo not drawn) [Example 56, 4-(benzyloxy)-1-methyl-5-(1-(1-phenylethyl)-1H-pyrazol-4-yl) pyridin-2(1H)-one]",< 500 nM
2,"CCn1cc(-c2cn(C)c(=O)cc2-c2ccccc2)cn1 [Example 132, 5-(1-ethyl-1H-pyrazol-4-yl)-1-methyl-4-phenylpyridin-2(1H)-one]",< 500 nM
3,"Cn1cc(-c2cnn(Cc3ccccc3)c2)c(-c2cnn(CC#N)c2)cc1=O [Example 163, 2-(4-(5-(1-benzyl-1H-pyrazol-4-yl)-1-methyl-2-oxo-1,2-dihydropyridin-4-yl)-1H-pyrazol-1-yl)acetonitrile]",< 500 nM
4,"Cn1cc(-c2cnn(Cc3ccccc3)c2)c(N2CCOCC2)cc1=O [Example 67, 5-(1-benzyl-1H-pyrazol-4-yl)-1-methyl-4-morpholino-pyridin-2(1H)-one]",< 500 nM
5,"Cn1cc(-c2cnn(Cc3ccccc3)c2)c(-c2cccnc2)cc1=O [Example 122, 5′-(1-benzyl-1H-pyrazol-4-yl)-1′-methyl-[3,4-bipyridin]-2′(1′H)-one]",< 500 nM
6,"Cc1cc(-c2cnn(Cc3ccccc3)c2)cn(C)c1=O [Example 13, 5-(1-benzyl-1H-pyrazol-4-yl)-1,3-dimethyl-pyridin-2(1H)-one]",< 500 nM
7,"CNS(=O)(=O)C1CCN(c2cc(=O)n(C)cc2-c2cnn(Cc3ccccc3)c2)C1 (stereo not drawn) [Example 172, 1-(5-(1-benzyl-1H-pyrazol-4-yl)-1-methyl-2-oxo-1,2-dihydropyridin-4-yl)-N-methylpyrrolidine-3-sulfonamide]",< 500 nM
8,"Cn1cc(-c2cnn(Cc3ccccc3)c2)c(-n2ccc(C(N)=O)c2)cc1=O [Example 85, 1-(5-(1-benzyl-1H-pyrazol-4-yl)-1-methyl-2-oxo-1,2-dihydropyridin-4-yl)-1H-pyrrole-3-carboxamide]",< 500 nM

# Second part, the compound after the results:
row,IC50,Compound
1,< 500 nM,"CN(C)c1ccc(-c2cc(=O)n(C)cc2-c2cnn(-c3cccc(F)c3C#N)c2)cn1 [Example 347, 2-{4-[6-(dimethylamino)-1′-methyl-6′-oxo-1′,6′-dihydro-[3,4′-bipyridine]-3′-yl]-1H-pyrazol-1-yl}-6-fluorobenzonitrile]"
2,< 500 nM,"Cn1cc(-c2cnn(-c3ccccc3C#N)c2)c(-c2ccccc2)cc1=O [Example 212, 2-[4-(1-Methyl-6-oxo-4-phenyl-1,6-dihydro-pyridin-3-yl)-pyrazol-1-yl]-benzonitrile]"
3,< 500 nM,"COc1cncc(-c2cc(=O)n(C)cc2-c2cnn(-c3ccccc3C#N)c2)c1 [Example 242, 2-(4-(5-methoxy-1′-methyl-6′-oxo-1′,6′-dihydro-[3,4′-bipyridin]-3′-yl)-1H-pyrazol-1-yl)benzonitrile]"
4,< 500 nM,"CNc1ncc(-c2cc(=O)n(C)cc2-c2cnn(-c3ccccc3C(=O)NC#N)c2)cn1 [Example 295, N-cyano-2-(4-(1-methyl-4-(2-(methylamino)pyrimidin-5-yl)-6-oxo-1,6-dihydropyridin-3-yl)-1H-pyrazol-1-yl)benzamide]"
5,< 500 nM,"Cn1ccc(-c2cc(=O)n(C)cc2-c2cnn(-c3ccccc3F)c2)cc1=O [Example 318, 5-(1-(2-fluorophenyl)-1H-pyrazol-4-yl)-1,1′-dimethyl-[4,4′-bipyridine]-2,2′(1H,1′H)-dione]"
6,< 500 nM,"CN(C)CCCOc1ccc(-c2cc(=O)n(C)cc2-c2cnn(-c3cccc(C4CC4)c3C#N)c2)cn1 [Example 382, 2-cyclopropyl-6-(4-(6-(3-(dimethylamino)propoxy)-1′-methyl-6′-oxo-1′,6′-dihydro-[3,4′-bipyridin]-3′-yl)-1H-pyrazol-1-yl)benzonitrile]"
7,< 500 nM,"CN(C)S(=O)(=O)NC(=O)c1ccccc1-n1cc(-c2cn(C)c(=O)cc2C2CC2)cn1 [Example 304, N-[(dimethylamino)sulfonyl]-{2-[4-(4-cyclopropyl-1-methyl-6-oxo(3-hydropyridyl))pyrazolyl]phenyl}carboxamide]"
